Experimental data from patent US20260354383A1, “AN HERBICIDAL COMBINATION, COMPOSITION AND METHOD OF CONTROLLING WEEDS USING THE SAME” (UPL Mauritius Limited, priority 2022, published 2026).

Key:
[1] = tested on: Viola arvensis, Bromus spp., Lolium spp., Agropyron repens and Urtica urens; settings: Hoechst et al., 1991; cited from earlier work
weedy Glycine max = assay: Post-emergence herbicidal activity (greenhouse), weedy Glycine max, Example 4; format: in vivo; settings: L-glufosinate ammonium 150
Protocol: (§1) The expected efficacy of a combination of L-glufosinate ammonium and the other herbicides was calculated using the well-established Colby method. Any difference between the observed and “expected” efficacy could be attributed to synergy between the two compounds.
(§2) In the Colby method, the expected (or predicted) response of a combination of herbicides is calculated by taking the product of the observed response for each individual component of the combination when applied alone, divided by 100, and subtracting this value from the sum of the observed response for each component when applied alone. An unexpected enhancement in efficacy of the combination is then determined by comparing the observed response of the combination to the expected (or predicted) response as calculated from the observed response of each individual component alone. If the observed response of the combination is greater than the expected (or predicted) response, or stated conversely, if the difference between the observed and expected response is greater than zero, then the combination is said to be synergistic or unexpectedly effective (Colby, S. R., Weeds, 1967(15), p. 20-22). The Colby method requires only a single dose of each herbicide applied alone and the mixture of both doses. The formula used to calculate the expected efficacy (EE) which was compared with the observed efficacy (OE) to determine the efficacy of the present disclosure is explained hereinbelow:
(§3) The expected efficacy for a combination of two active ingredients is as follows:
(§4) Evaluation of Post-Emergence Herbicidal Activity
(§5) Methodology: Greenhouse trials were conducted to evaluate the efficacy of the combination comprising L-glufosinate ammonium and clethodim on weeds Eleusine indica, Brachiaria decumbens, Spermacoce latifolia and weedy Glycine max.
(§6) The soil used was sandy clay loam—sand: 68.0%; silt: 8.0%; clay: 24.0%.
(§7) All treatments were in 3 replications per treatment with a spray volume of about 150 L/ha.
Example 4: Efficacy of L-Glufosinate Ammonium and Clethodim on Weedy Glycine max
The percentage efficacy was calculated after 3, 7, 14, 21, 28 and 35 days of application (DAA). The target weed was weedy Glycine max, and the concentration of the herbicide and the results are recorded in the Table 4.

Eleusine indica = assay: Post-emergence herbicidal activity (greenhouse), Eleusine indica, Example 1; format: in vivo; settings: L-glufosinate ammonium 150
Protocol: as §1, §2, §3, §4, §5, §6, §7
Example 1: Efficacy of L-Glufosinate Ammonium and Clethodim on Eleusine indica
The percentage efficacy was calculated after 3, 7, 28 and 35 days of application (DAA). The target weed was Eleusine indica, and the concentration of the herbicide and the results are recorded in the Table 1.

Brachiaria decumbens = assay: Post-emergence herbicidal activity (greenhouse), Brachiaria decumbens, Example 2; format: in vivo; settings: L-glufosinate ammonium 150, clethodim 45 g a.i./ha
Protocol: as §1, §2, §3, §4, §5, §6, §7
Example 2: Efficacy of L-Glufosinate Ammonium and Clethodim on Brachiaria decumbens
The percentage efficacy was calculated after 7, 14, 21, 28 and 35 days of application (DAA). The target weed was Brachiaria decumbens, and the concentration of the herbicides and the results are recorded in the Table 2.

Spermacoce latifolia = assay: Post-emergence herbicidal activity (greenhouse), Spermacoce latifolia, Example 3; format: in vivo; settings: 7 DAA
Protocol: as §1
as §2, with “The Colby method requires only a single dose of each herbicide applied alone and the mixture of both doses. The formula used to calculate the expected efficacy (EE) which was compared with the observed efficacy (OE) to determine the efficacy of the present disclosure is explained hereinbelow:” left out
The percentage efficacy was calculated after 7 days of application (DAA). The target weed was Spermacoce latifolia, and the concentration of the herbicide and the results are recorded in the Table 3.

[2] = cited from earlier work

CP(=O)(O)CCC(N)C(=O)O (racemic) [Glufosinate, DL-homoalanin-4-yl(methyl)phosphinic acid]
weed species either not combated, or only weakly combated [1]: either not combated, or only weakly combated

CCSC(C)CC1CC(=O)C(/C(CC)=N/OC/C=C/Cl)=C(O)C1 (stereo not drawn) [Clethodim, clethodim]
% Control (weedy Glycine max; 3 DAA): 0%
% Control (weedy Glycine max; 7 DAA): 0%
% Control (weedy Glycine max; 14 DAA): 0%
% Control (weedy Glycine max; 21 DAA): 0%
% Control (weedy Glycine max; 28 DAA): 0%
% Control (weedy Glycine max; 35 DAA): 0%
% Control (Eleusine indica; 3 DAA): 6.7%
% Control (Eleusine indica; 7 DAA): 15%
% Control (Eleusine indica; 28 DAA): 81.7%
% Control (Eleusine indica; 35 DAA): 84.3%
% Control (Brachiaria decumbens; 7 DAA): 15%
% Control (Brachiaria decumbens; 14 DAA): 55%
% Control (Brachiaria decumbens; 21 DAA): 65%
% Control (Brachiaria decumbens; 28 DAA): 75%
% Control (Brachiaria decumbens; 35 DAA): 71%
% Control (Spermacoce latifolia): 3%

CP(=O)(O)CC[C@H](N)C(=O)O [L-Glufosinate, (S)-2-amino-4-(hydroxy(methyl)phosphonoyl)butanoic acid]
herbicidal activity relative to glyphosate ([2]; vs glyphosate): about four times that of glyphosate
herbicidal activity relative to paraquat ([2]; vs paraquat): about twice that of paraquat
herbicidal activity relative to racemic glufosinate (DL-glufosinate) ([2]; vs racemic glufosinate): more than about twice that of racemic glufosinate

CP(=O)(O)CC[C@H](N)C(=O)O.N [L-glufosinate ammonium, ammonium (2S)-2-amino-4-(methylphosphinato)butyric acid]
% Control (weedy Glycine max; 3 DAA): 15%
% Control (weedy Glycine max; 7 DAA): 53.3%
% Control (weedy Glycine max; 14 DAA): 71%
% Control (weedy Glycine max; 21 DAA): 66.7%
% Control (weedy Glycine max; 28 DAA): 56.7%
% Control (weedy Glycine max; 35 DAA): 41.7%
% Control (Eleusine indica; 3 DAA): 12.3%
% Control (Eleusine indica; 7 DAA): 50.7%
% Control (Eleusine indica; 28 DAA): 59.3%
% Control (Eleusine indica; 35 DAA): 54.3%
% Control (Brachiaria decumbens; 7 DAA): 50%
% Control (Brachiaria decumbens; 14 DAA): 79.3%
% Control (Brachiaria decumbens; 21 DAA): 82%
% Control (Brachiaria decumbens; 28 DAA): 79.3%
% Control (Brachiaria decumbens; 35 DAA): 79.3%
% Control (Spermacoce latifolia): 31.7%
